Several values for one entry are separate records, joined by “and”; a condition that tells them apart may be missing. Identical values can stand only once.
Columns and labels:
splenocytes = test: Splenocyte proliferation assay (3H-thymidine) following subcutaneous vaccination of mice with TG02; format: cell-based, BALB/c mice; conditions: 1 μg/200 μL ConA, 5 days
Description: In this Example, mice were repeatedly vaccinated subcutaneously with TG02, in order to analyse the immune response. Following the vaccination, splenocytes were harvested, and the proliferative response of the splenocytes was measured.
The study was conducted with 3 groups, each compromising 10 female BALB/c mice. The start of the study was performed on two separate days on which 5 of the animals per group were treated. Therefore the groups were divided into part I and part II. The animals were treated subcutaneously at different time points (Table 12).
In all groups the test item was administered at repeated time points (Table 15) by subcutaneous injection between the nape of the neck and the shoulder. The application volume for all groups was 0.1 mL (0.80 mg TG02).
The spleen of all animals was removed, transferred to cell culture medium (RPMI 1640 medium supplemented with 10% FCS, 100 U/ml Penicillin, 100 μg/mL Streptomycin, 2 mM L-Glutamine, and 50 μM beta-mercaptoethanol) and stored on ice. All steps were performed sterile and cells were kept on ice.
A single cell suspension from splenic cells was generated using a cell strainer. After centrifugation (350 g, 5 min, 5±3° C.), supernatant was removed and the cell pellet was resuspended in ACK buffer and incubated for 5 min at RT. 10 mL cell culture medium was added. The samples were left 5 min on bench top to let the cell debris sediment. The suspension above the cell debris was transferred into another tube and was centrifuged (350 g, 5 min, 5±3° C.). The supernatant was removed and the cell pellet was resuspended in 10 mL cell culture medium. After counting of cells, 0.2 Mio cells were seeded in a 96 well plate (180 μL per well; 1,1 *10^6 cells/mL). 9 replicates were plated on each plate for each spleen. • (1) 1 plate for harvesting of supernatant for cytokine measurement after 24 h (results not shown) • (2) 1 plate for harvesting of supernatant for cytokine measurement after 48 h (results not shown) • (3) 1 plate for the proliferation assay
The following stimulations were performed: • 3 replicates: unstimulated (addition of 20 μL cell culture medium) • 3 replicates: stimulation with 10 μM TG02 (8 peptides, 10 μM end concentration per peptide, addition in 20 μL cell culture medium) • 3 replicates: stimulation with 1 μg/200 μL, ConA (Concanavalin A) (addition of 1 μg ConA in 2.0 μL cell culture medium)
Incubation at 37° C. and 5% CO2 for 24 h (1), […] or 5 days (3).
Proliferation Assay • (3) After 5 days, 1 μCi/well ^3H-Thymidine was added to the samples, which were then incubated for 18 h at 37° C. and 5% CO2. The plates were then frozen at ≤−20° C.
Plates were thawed at RT. After washing off the harvester, the samples were transferred to a filter plate using the harvester followed by 5 washing steps using water. Filter plates were dried at RT overnight. A foil was stuck to the bottom of the filter plates and 20 μL scintillation fluid was added to the wells. After incubation of 1 h at RT, the samples were measured using a TopCount NXT and the stimulation index (SI) was calculated. SI=CPM of stimulated samples/CPM of control samples.

T cells = test: 3-days T cell proliferation assay (3H-thymidine) after three rounds of in vitro stimulation of PBMC bulk cultures with RAS peptides; format: cell-based, human; conditions: bulk cultures stimulated three rounds with TG02 + 13R, 10 μM peptide
Description: In this example, Buffy coats were collected from 4 normal human donors (Buffy 1, Buffy 2, Buffy 3, and Buffy 4) and were cultured in vitro. The in vitro PBMCs were stimulated with a single RAS peptide or a mixture of RAS peptides, and T cell proliferation assays performed.
The procedure must be performed at room temperature until point 5. All handling of cells in the open is done in a vertical laminar flow hood. • 1. Rapidly transfer the vials, each vial with frozen PBMC from a buffy coat (Buffy 1, Buffy 2, Buffy 3, and Buffy 4), to a water bath at 37° C. • 2. Shake the vials manually at regular intervals (approx. 2-3 min.) and remove them from the water bath while some ice is still present. • 3. When all the ice is melted, transfer 1 ml of CellGro DC medium drop-wise to the cell suspension. • 4. Transfer the cell suspension to a 50 ml tube containing 20 ml of CellGro DC medium. • 5. Centrifuge cells at 500 G for 5 min at room temperature. • 6. Resuspend the cells in 5 ml CellGro DC medium, • 7. Count the number of viable cells using a Bürker chamber or KOVA Galsstic slides and adjust the cell concentration to 2×10^6cells/ml in complete CellGro DC medium (see recipe). Total cell numbers: Buffy 1-45×10^6, Buffy 2-27.5×10^6, Buffy 3-40.5×10^6, and Buffy 4-40.5×10^6 cells. b. Bulk Cultures for Increasing Number of RAS Peptide Reactive T Cells • 1. […]

| Substance | Counts per minute (CPM), Splenocytes + ConA, mean (splenocytes; Mean Mouse #4, vaccinated with TG02) | Counts per minute (CPM), Splenocytes + ConA, mean (splenocytes; Mean Mouse #7, vaccinated with TG02) | Counts per minute (CPM), Splenocytes + ConA, mean (splenocytes; Mean Mouse #24, vaccinated with TG02 + ViscoGel) | Counts per minute (CPM), Splenocytes + ConA, mean (splenocytes; Mean Mouse #29, vaccinated with TG02 + ViscoGel) | Counts per minute (CPM), Splenocytes + ConA, replicate (splenocytes; Mouse #4, vaccinated with TG02) | Counts per minute (CPM), Splenocytes + ConA, replicate (splenocytes; Mouse #7, vaccinated with TG02) | Counts per minute (CPM), Splenocytes + ConA, replicate (splenocytes; Mouse #24, vaccinated with TG02 + ViscoGel) | Counts per minute (CPM), Splenocytes + ConA, replicate (splenocytes; Mouse #29, vaccinated with TG02 + ViscoGel) | Counts per minute (CPM), Splenocytes + ConA, mean (splenocytes; Mouse #30 (last line, mean), vaccinated with TG02 + ViscoGel) | Counts per minute (CPM), Splenocytes + ConA, replicate (splenocytes; Mouse #30, vaccinated with TG02 + ViscoGel) | Counts per minute (CPM), APC + T cell + 13C, replicate (T cells; Donor #3) | Counts per minute (CPM), APC + T cell + 13C, mean (T cells; Mean Donor #3) |
| --- | --- | --- | --- | --- | --- | --- | --- | --- | --- | --- | --- | --- |
| Concanavalin A [ConA] | 15,210 CPM | 6158 CPM | 8823 CPM | 10,935 CPM | 15,113 CPM and 12,612 CPM and 17,906 CPM | 5305 CPM and 6252 CPM and 6916 CPM | 7834 CPM and 8578 CPM and 10,057 CPM | 9480 CPM and 13,292 CPM and 10,033 CPM | 36,687 CPM | 32,205 CPM and 35,668 CPM and 42,149 CPM | – | – |
| KLVVVGAGCVGKSALTI (listed as Homo sapiens) [13C] | – | – | – | – | – | – | – | – | – | – | 27813 CPM and 32522 CPM and 28869 CPM | 29735 CPM |
